Data set [1] is described as follows: Water solubility of peptides. In kind it is physicochemical. From the text:
Both the peptide derivatives were synthetized using solid phase peptide synthesis protocols (SPPS) with Fmoc/OtBu strategy. After their purification by RP‐HPLC chromatography, peptides were characterized by ESI mass spectrometry (see Figure S8). The logP values, estimated using the ACD Lab ChemSketch software, predict the intrinsic water solubility of peptides. […] A diametric behaviour was noted using the organic solvent 1,1,1,3,3,3‐hexafluoro‐isopropan‐2‐ol (HFIP).[[11a], [12]] Indeed, in HFIP the peptide FYFCFYF is highly soluble (up to 200 mg/mL), whereas PEG8‐FYFCFYF is moderately soluble (up to 5 mg/mL). According to their different solubility, peptide solutions were prepared using two approaches: PEG8‐FYFCFYF solutions were prepared by a direct dissolution of the lyophilized powder in water, whereas FYFCFYF ones were obtained by dilution in water of a HFIP stock solution (100 mg/mL). […] Peptide concentration was then analytically quantified using UV‐Vis spectroscopy. Preliminarily, we evaluated the capability of both the peptides to aggregate in solution (at 2.0 mg/mL) using the Dynamic Light Scattering (DLS) technique. […] The formation of nanoarchitectures was further investigated by fluorescence spectroscopy. Despite the presence of four Phe residues in the peptides, their self‐assembling propensity cannot be evaluated by simply considering the Phe excimer formation. […]

The nature of data set [2]: Gelification, inverted test tube (CGC, gelation time, shelf stability, syneresis). In kind it is physicochemical. From the text: Interconnected fibers network can generate self‐supporting hydrogels as a consequence of additional physical cross‐linking phenomena or chemical modifications. In the specific case of peptide‐based HGs, these materials are formed by further entanglement of supramolecular fibrillary structures, which can be induced by increasing the total sample concentration, and as a consequence, the number of fibers and their mutual contacts.[21] During the preparation of FYFCFYF solutions, we observed a viscosity degree that increases proportionally to the peptide concentration. […] As reported in Figure S12, the critical gelation concentration (CGC) for FYFCFYF can be identified in the range 0.5 wt%<CGC<1.0 wt%. […] However, the characterization of others analogues of (FY)3 and PEG8‐(FY)3 [eg. (F‐Dopa)3 and (Nal‐Dopa)3 and their PEGylated versions PEG8‐(F‐Dopa)3 and PEG8‐(Nal‐Dopa)3] highlighted a diametrically opposed behavior respect to (FY)3.[10] All these evidences point out the importance of the hydrophilic/hydrophobic balance in the peptide sequence in the gelification process. Moreover, it is possible that the Cys side chain plays a role in the confinement and retention of water molecules in the gel. The stability of the FYFCFYF hydrogel (macroscopically evaluated in terms of homogeneity, opacity and reproducibility) and its capability to hold water (as difference between the weight of the matrix before and after an incubation in water overnight at room temperature) were evaluated by the swelling value q (See Equation (1)).[22] […] The shelf stability was also evaluated via inverted test tube. […]
The formation of an additional chemical network affects also on the CGC and swelling features. […] The efficiency of oxidation procedure was evaluated using the well‐assessed Ellman's test.[24] Ellman's reagent (5,5’‐dithio‐bis‐(2‐nitrobenzoic acid)) also known as DTNB, is a chromogenic compound used to quantify free sulfhydryl groups in solution. […] Thus, free thiol concentration can be indirectly determined by TNB UV‐Vis absorption at 412 nm. […]

Converted amounts (≈) assume the structure as drawn. Square brackets hold non-standard residues; d marks the D form. Ends that are not written are not given here. Peptide text beside a SMILES is read from it. AEEA = NCCOCCOCC(=O)O

What is called solubility is how much of the substance goes into solution per volume. A higher solubility goes with a readily soluble substance.

On to `NCCOCCOCC(=O)NCCOCCOCC(=O)NCCOCCOCC(=O)NCCOCCOCC(=O)N[C@@H](Cc1ccccc1)C(=O)N[C@@H](Cc1ccc(O)cc1)C(=O)N[C@@H](Cc1ccccc1)C(=O)N[C@@H](CS)C(=O)N[C@@H](Cc1ccccc1)C(=O)N[C@@H](Cc1ccc(O)cc1)C(=O)N[C@@H](Cc1ccccc1)C(N)=O` [PEG8‐FYFCFYF] (H-[AEEA][AEEA][AEEA][AEEA]FYFCFYF-NH2), for which the solubility in data set [1] was around 10000 µg/mL (≈ 6.19 mM).

As to FYFCFYF-NH2 [FYFCFYF], the shelf stability in data set [2] (hydrogel 1.0 wt%) was 20 days; in data set [2] (hydrogel 1.5 wt%) it was “up to 40 days”; in data set [2] (hydrogel 2.0 wt%), “up to 65 days”. This molecule displayed a solubility in data set [1] of 240 µg/mL.

For the origin of these results see article PMC8596998, “The Introduction of a Cysteine Residue Modulates The Mechanical Properties of Aromatic‐Based Solid Aggregates and Self‐Supporting Hydrogels” (Chemistry (Weinheim an Der Bergstrasse, Germany), 2021).
